Reference: patent US6743425B2, “Therapeutic agents for achondroplasia” (priority 2001, dated 2004)

Columns and labels:
[1] = tested on: tibiae from the fetus of CNP-transgenic mice or their nontransgenic littermates; assay: organ culture of embryonic tibiae (4-d culture; longitudinal length and histology); assay type: cell-based, mouse; conditions: cultured tibiae from nontransgenic littermates in the presence of 10^-7 M CNP
Protocol: Tibiae from the fetus of CNP-transgenic mice or their nontransgenic littermates were dissected out on 16.5-d post coitus and cultured for 4 days in suspension in an artificial medium. To inhibit the effect of the endogenous CNP, the tibial culture was performed with a non-peptide NP receptor antagonist, HS-142-1 (Komatsu et al., Circ Res. 78:606-614, 1996) at a concentration of 50 mg/L in the medium. At the end of the culture period, the cultured tibiae were measured for their longitudinal length, and fixed and embedded for histological analysis. Sections of 5 μm in thickness were cut from the embedded specimen and stained with Alcian blue (pH 2.5) and counterstained with hematoxylin/eosin. The cGMP contents of the cultured tibiae were measured by RIA at the end of the 4-d culture period. Glycosaminoglycan synthesis of the cultured tibiae was assessed by measuring ^35SO4 incorporation (Mericq et al., Pediatr Res 47: 189-193, 2000). Namely, cultured tibiae of the CNP-transgenic mice and their nontransgenic littermates were labeled with 5 μCi/ml Na2^35SO4 (Amersham, specific activity 100 mCi/mmol) for 1 h. […] The precipitate was washed three times with 1 ml of 0.1% cetylpyridinium chloride (Sigma Chemical Co.)—0.2 M NaCl and then dissolved in 1 ml of 23 N formic acid, after which the ^35SO4 content was determined by a liquid scintillation counter.

[2] = tested on: organ cultures of tibiae from fetal mice, cultured chondrocytes and cultured osteoblasts; conditions: cited from earlier work
[3] = tested on: p44 and p42 MAP kinases (ERK1/2); assay: phosphorylation of ERK1/2 after basic FGF stimulation, Western blotting in ATDC cells; assay type: cell-based, mouse; conditions: pretreatment for 1 h, 10^-7 CNP
Protocol: (§1) Cells of the mouse chondrocyte strain ATDC (J. Bone. Miner. Res., 12, 1174-1188, 1997; supplied from Assistant Professor Shukunami and Professor […] of the Institute for Frontier Medical Sciences, Kyoto University) were pretreated with 1-10 ng/ml basic FGF (SIGMA), a ligand for FGFR3. Then, these cells were stimulated with 10^-9-10^-7 M CNP and assayed for intracellular cGMP production by the RIA method (cyclic GMP Assay Kit available from YAMASA CORPORATION). Phosphorylation of p44 and p42 MAP kinases (ERK1/2) and expression of […] and p44 MAP kinase (ERK1) after basic FGF stimulation were also assayed by Western blotting using phosphorylated MAP-K antibodies and MAP-K antibodies (both available from Cell Signaling Technology; MAP: mitogen-activated protein).

tibiae from fetal mice = conditions: organ cultures of tibiae from fetal mice; J. Biol. Chem. 273: 11695-11700, 1998; cited from earlier work
[4] = tested on: mouse chondrocyte strain ATDC; assay: intracellular cGMP production by RIA in ATDC cells after basic FGF pretreatment and CNP stimulation; assay type: cell-based; conditions: pretreatment with 1 ng/ml basic FGF for 1 h
Protocol: as §1

Question: Which results are given for C-type natriuretic peptide [CNP]?
Answer: elongation of the cartilagenous primordia with enlarged extracellular matrix and increased size of hypertrophic chondrocytes [1]: potent; potency in the production of cGMP compared with ANP and BNP [2]: more potent than ANP and BNP; phosphorylation of ERK1/2 with basic FGF [3]: significantly inhibited; longitudinal bone growth (tibiae from fetal mice): significantly promotes

Question: With basic FGF: a ligand for FGFR3 (SIGMA) as the substance, how does the “intracellular cGMP production after CNP stimulation” value [4] read?
Answer: The value was 70 % of control.
